Reference: patent publication US12577206B2 (BRISTOL-MYERS SQUIBB COMPANY, priority 2020, dated 2026)
pEC50: −log10 of the molar value.

Tests used:
human FPR2 = target: T1, human FPR2 (Homo sapiens, UniProt P25090); assay: FPR2 cyclic adenosine monophosphate (cAMP) assay; format: cell-based; settings: CHO cells overexpressing human FPR2; forskolin 5 μM; inhibition of cAMP production; HTRF; read-out: hFPR2 cAMP2 EC50
T1 sequence (P25090 1-351): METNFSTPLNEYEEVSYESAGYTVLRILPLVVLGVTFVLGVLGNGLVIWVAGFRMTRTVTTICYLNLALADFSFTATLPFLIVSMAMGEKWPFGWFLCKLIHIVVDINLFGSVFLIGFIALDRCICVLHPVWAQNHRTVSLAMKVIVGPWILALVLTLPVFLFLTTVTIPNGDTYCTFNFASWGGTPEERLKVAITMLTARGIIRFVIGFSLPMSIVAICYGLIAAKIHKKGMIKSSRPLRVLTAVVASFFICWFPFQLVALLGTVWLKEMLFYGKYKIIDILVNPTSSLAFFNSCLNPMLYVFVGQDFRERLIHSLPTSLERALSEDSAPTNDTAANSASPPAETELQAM
Procedure, shortened: (§1)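 CHO/hFPR1 4,000 cells/well, forskolin 10 μM final; CHO/hFPR2 2,000 cells/well, forskolin 5 μM final. IBMX 200 μM, DMSO 1%, DPBS + Ca/Mg + 0.1% BSA, 30 min rt. HTRF cAMP; 4-PL fit.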

human FPR1 = target: T2, human FPR1 (Homo sapiens, UniProt P21462); assay: FPR1 cyclic adenosine monophosphate (cAMP) assay; format: cell-based; settings: CHO cells overexpressing human FPR1; forskolin 10 μM; inhibition of cAMP production; HTRF; read-out: hFPR1 cAMP2 EC50
T2 sequence (P21462 1-350): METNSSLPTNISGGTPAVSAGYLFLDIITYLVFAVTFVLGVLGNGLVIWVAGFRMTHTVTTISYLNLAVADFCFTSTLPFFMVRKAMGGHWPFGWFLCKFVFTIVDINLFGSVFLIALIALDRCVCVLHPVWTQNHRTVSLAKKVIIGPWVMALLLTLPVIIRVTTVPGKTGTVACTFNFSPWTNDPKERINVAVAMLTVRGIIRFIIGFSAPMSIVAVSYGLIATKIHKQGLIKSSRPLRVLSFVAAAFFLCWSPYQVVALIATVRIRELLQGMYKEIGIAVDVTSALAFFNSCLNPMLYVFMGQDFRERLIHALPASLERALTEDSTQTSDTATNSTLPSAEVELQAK
Procedure, shortened: as §1

Row | SMILES | pEC50 (human FPR2) | pEC50 (human FPR1)
1 | COc1cc(C2CCCNC2)nc(-n2c(=O)c(NC(=O)c3ccc(OC(F)F)cc3)c(-c3c(F)cc(OC)cc3F)n2C)c1 (stereo not shown) [Example 346, N-(5-(2,6-Difluoro-4-methoxyphenyl)-2-(4-methoxy-6-(piperidin-3-yl)pyridin-2-yl)-1-methyl-3-oxo-2,3-dihydro-1H-pyrazol-4-yl)-4-(difluoromethoxy)benzamide] | 8.30 | < 5.00
2 | COc1cc(C2CCCNC2)nc(-n2c(=O)c(NC(=O)c3ccc(OC(F)F)cc3)c(-c3c(F)cc(OC)cc3F)n2C)c1 (stereo not shown) [Example 347, N-(5-(2,6-Difluoro-4-methoxyphenyl)-2-(4-methoxy-6-(piperidin-3-yl)pyridin-2-yl)-1-methyl-3-oxo-2,3-dihydro-1H-pyrazol-4-yl)-4-(difluoromethoxy)benzamide] | 8.40 | < 5.00
3 | COc1cc(OCC2CCCO2)nc(-n2c(=O)c(NC(=O)c3ccc(OC(F)F)cc3)c(-c3c(F)cc(OC)cc3F)n2C)c1 (stereo not shown) [Example 350, N-(5-(2,6-Difluoro-4-methoxyphenyl)-2-(4-methoxy-6-((tetrahydrofuran-2-yl)methoxy)pyridin-2-yl)-1-methyl-3-oxo-2,3-dihydro-1H-pyrazol-4-yl)-4-(difluoromethoxy)benzamide] | 8.05 | < 5.00
4 | COc1cc(N2C[C@H]3C[C@@H]2CN3C)nc(-n2c(=O)c(NC(=O)c3ccc(OC(F)F)cc3)c(-c3c(F)cc(OC)cc3F)n2C)c1 [Example 354, N-(5-(2,6-Difluoro-4-methoxyphenyl)-2-(4-methoxy-6-((1R,4R)-5-methyl-2,5-diazabicyclo[2.2.1]heptan-2-yl)pyridin-2-yl)-1-methyl-3-oxo-2,3-dihydro-1H-pyrazol-4-yl)-4-(difluoromethoxy)benzamide] | 8.70 | < 5.00
5 | COc1cc(OC2CCOC2)nc(-n2c(=O)c(NC(=O)c3ccc(OC(F)F)cc3)c(-c3c(F)cc(OC)cc3F)n2C)c1 (stereo not shown) [Example 355, N-(5-(2,6-Difluoro-4-methoxyphenyl)-2-(4-methoxy-6-((tetrahydrofuran-3-yl)oxy)pyridin-2-yl)-1-methyl-3-oxo-2,3-dihydro-1H-pyrazol-4-yl)-4-(difluoromethoxy)benzamide] | 8.40 | < 5.00
6 | COc1cc(OC2CCOC2)nc(-n2c(=O)c(NC(=O)c3ccc(OC(F)F)cc3)c(-c3c(F)cc(OC)cc3F)n2C)c1 (stereo not shown) [Example 356, N-(5-(2,6-Difluoro-4-methoxyphenyl)-2-(4-methoxy-6-((tetrahydrofuran-3-yl)oxy)pyridin-2-yl)-1-methyl-3-oxo-2,3-dihydro-1H-pyrazol-4-yl)-4-(difluoromethoxy)benzamide] | 8.30 | < 5.00
7 | COc1cc(F)c(-c2c(NC(=O)c3ccc(OC(F)F)cc3)c(=O)n(-c3cc(C)cc(C4CCN(C)CC4)n3)n2C)c(F)c1 [Example 361] | 9.00 | < 5.00
8 | COc1cc(C2CCN(C)CC2)nc(-n2c(=O)c(NC(=O)c3ccc(OC(F)F)cc3)c(-c3c(F)cc(OC)cc3F)n2C)c1 [Example 363, N-(5-(2,6-Difluoro-4-methoxyphenyl)-2-(4-methoxy-6-(1-methylpiperidin-4-yl)pyridin-2-yl)-1-methyl-3-oxo-2,3-dihydro-1H-pyrazol-4-yl)-4-(difluoromethoxy)benzamide] | 8.52 | < 5.00
9 | COc1cc(C2CCN(S(C)(=O)=O)CC2)nc(-n2c(=O)c(NC(=O)c3ccc(OC(F)F)cc3)c(-c3c(F)cc(OC)cc3F)n2C)c1 [Example 366, N-(5-(2,6-Difluoro-4-methoxyphenyl)-2-(4-methoxy-6-(1-(methylsulfonyl)piperidin-4-yl)pyridin-2-yl)-1-methyl-3-oxo-2,3-dihydro-1H-pyrazol-4-yl)-4-(difluoromethoxy)benzamide] | 8.15 | < 5.00

Further lines, results first:

Row | pEC50 (human FPR2) | pEC50 (human FPR1) | SMILES
10 | 7.70 | 5.66 | COc1cc(F)c(-c2c(NC(=O)c3ccc(OC(F)F)cc3)c(=O)n(-c3cc(OCCO)cc(C(F)(F)F)n3)n2C)c(F)c1 [Example 348, N-(5-(2,6-Difluoro-4-methoxyphenyl)-2-(4-(2-hydroxyethoxy)-6-(trifluoromethyl)pyridin-2-yl)-1-methyl-3-oxo-2,3-dihydro-1H-pyrazol-4-yl)-4-(difluoromethoxy)benzamide]
11 | 7.66 | 7.03 | COc1cc(F)c(-c2c(NC(=O)c3ccc(OC(F)F)cc3)c(=O)n(-c3cc(OCC4(C)COC4)cc(C(F)(F)F)n3)n2C)c(F)c1 [Example 349, N-(5-(2,6-Difluoro-4-methoxyphenyl)-1-methyl-2-(4-((3-methyloxetan-3-yl)methoxy)-6-(trifluoromethyl)pyridin-2-yl)-3-oxo-2,3-dihydro-1H-pyrazol-4-yl)-4-(difluoromethoxy)benzamide]
12 | 8.70 | < 5.00 | COc1cc(OCC2CCOC2)nc(-n2c(=O)c(NC(=O)c3ccc(OC(F)F)cc3)c(-c3c(F)cc(OC)cc3F)n2C)c1 (stereo not shown) [Example 351, N-(5-(2,6-Difluoro-4-methoxyphenyl)-2-(4-methoxy-6-((tetrahydrofuran-3-yl)methoxy)pyridin-2-yl)-1-methyl-3-oxo-2,3-dihydro-1H-pyrazol-4-yl)-4-(difluoromethoxy)benzamide]
13 | 8.22 | < 5.00 | COc1cc(F)c(-c2c(NC(=O)c3ccc(OC(F)F)cc3)c(=O)n(-c3cc(C)cc(OCC4CCOC4)n3)n2C)c(F)c1 (stereo not shown) [Example 352, N-(5-(2,6-Difluoro-4-methoxyphenyl)-1-methyl-2-(4-methyl-6-((tetrahydrofuran-3-yl)methoxy)pyridin-2-yl)-3-oxo-2,3-dihydro-1H-pyrazol-4-yl)-4-(difluoromethoxy)benzamide]
14 | 8.70 | 5.80 | COc1cc(F)c(-c2c(NC(=O)c3ccc(OC(F)F)cc3)c(=O)n(-c3cc(C)cc(OCC4(C)COC4)n3)n2C)c(F)c1 [Example 353, N-(5-(2,6-Difluoro-4-methoxyphenyl)-1-methyl-2-(4-methyl-6-((3-methyloxetan-3-yl)methoxy)pyridin-2-yl)-3-oxo-2,3-dihydro-1H-pyrazol-4-yl)-4-(difluoromethoxy)benzamide]
15 | 8.30 | < 5.00 | COc1cc(F)c(-c2c(NC(=O)c3ccc(OC(F)F)cc3)c(=O)n(-c3nc(C)ccc3C#N)n2C)c(F)c1 [Example 357, N-(2-(3-Cyano-6-methylpyridin-2-yl)-5-(2,6-difluoro-4-methoxyphenyl)-1-methyl-3-oxo-2,3-dihydro-1H-pyrazol-4-yl)-4-(difluoromethoxy)benzamide]
16 | 8.05 | < 5.00 | COc1cc(F)c(-c2c(NC(=O)c3ccc(OC(F)F)cc3)c(=O)n(-c3nc(C(F)(F)F)ccc3OCC3(C)COC3)n2C)c(F)c1 [Example 358, N-(5-(2,6-Difluoro-4-methoxyphenyl)-1-methyl-2-(3-((3-methyloxetan-3-yl)methoxy)-6-(trifluoromethyl)pyridin-2-yl)-3-oxo-2,3-dihydro-1H-pyrazol-4-yl)-4-(difluoromethoxy)benzamide]
17 | 8.30 | < 5.00 | COc1cc(F)c(-c2c(NC(=O)c3ccc(OC(F)F)cc3)c(=O)n(-c3cc(C)cc(OC4CCOC4)n3)n2C)c(F)c1 (stereo not shown) [Example 359, N-(5-(2,6-Difluoro-4-methoxyphenyl)-1-methyl-2-(4-methyl-6-((tetrahydrofuran-3-yl)oxy)pyridin-2-yl)-3-oxo-2,3-dihydro-1H-pyrazol-4-yl)-4-(difluoromethoxy)benzamide]
18 | 8.40 | < 5.00 | COc1cc(F)c(-c2c(NC(=O)c3ccc(OC(F)F)cc3)c(=O)n(-c3cc(C)cc(OC4CCOC4)n3)n2C)c(F)c1 (stereo not shown) [Example 360, N-(5-(2,6-Difluoro-4-methoxyphenyl)-1-methyl-2-(4-methyl-6-((tetrahydrofuran-3-yl)oxy)pyridin-2-yl)-3-oxo-2,3-dihydro-1H-pyrazol-4-yl)-4-(difluoromethoxy)benzamide]
19 | 8.00 | < 5.00 | COc1cc(F)c(-c2c(NC(=O)c3ccc(OC(F)F)cc3)c(=O)n(-c3cc(C)cc(C#N)n3)n2C)c(F)c1 [Example 362, N-(2-(6-Cyano-4-methylpyridin-2-yl)-5-(2,6-difluoro-4-methoxyphenyl)-1-methyl-3-oxo-2,3-dihydro-1H-pyrazol-4-yl)-4-(difluoromethoxy)benzamide]
20 | 7.21 | 5.68 | COc1cc(N2CCOCC2)nc(-n2c(=O)c(NC(=O)c3ccc(OC(F)F)cc3)c(-c3c(F)cc(OC)cc3F)n2C)c1 [Example 364, N-(5-(2,6-Difluoro-4-methoxyphenyl)-2-(4-methoxy-6-morpholinopyridin-2-yl)-1-methyl-3-oxo-2,3-dihydro-1H-pyrazol-4-yl)-4-(difluoromethoxy)benzamide]
